Source: publication PMC6167350, “Small-molecule AgrA inhibitors F12 and F19 act as antivirulence agents against Gram-positive pathogens” (Scientific Reports, 2018)

What was measured:
[1] = target: T1, AgrA (C-terminal DNA-binding domain, AgrA_C) (Staphylococcus aureus, UniProt P0A0I7, C199S); assay: microscale thermophoresis (Alexa Fluor 647-labeled protein)
T1 sequence (P0A0I7 143-238 C199S): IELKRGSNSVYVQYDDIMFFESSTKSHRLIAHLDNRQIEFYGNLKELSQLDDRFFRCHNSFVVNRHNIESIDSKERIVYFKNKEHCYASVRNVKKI

[2] = target: AgrA (C-terminal DNA-binding domain, AgrA_C) (Staphylococcus epidermidis, UniProt Q8CNM5); assay: microscale thermophoresis; also EMSA (F19 blocks P3 DNA binding)

| SMILES | Kd [1] [nM] | Kd [2] [nM] |
| --- | --- | --- |
| CCCCCCc1cc(C(=O)COc2ccc(F)cc2F)c(O)cc1O [F12] | 4500 ± 400 |  |
| CCCCCCc1cc(C(=O)COc2ccc(C(C)C)cc2)c(O)cc1O [F19] | 2900 ± 400 | 2700 ± 700 |
